From ChEMBL document CHEMBL1909046, “DrugMatrix in vitro pharmacology data”

Experiments:
[1] = biological target: Aldo-keto reductase family 1 member B1 (Rattus norvegicus, UniProt P07943); test: biochemical; type: tissue-based, Lens of camera-type eye;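 also: inhibition of aldose reductase enzyme activity, measured with DL-glyceraldehyde as the substrate; in other assays of this panel Not Active means under 50% inhibition at 10 µM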
[2] = DRUGMATRIX: Calcium Channel Type L, Dihydropyridine radioligand binding (ligand: [3H] Nitrendipine); type: cell membranes, Rattus norvegicus, Wistar, Cerebral cortex, Membrane; settings: Not Active = under 50% inhibition at 10 µM
[3] = biological target: Vascular endothelial growth factor receptor 1 (Homo sapiens, UniProt P17948); test: biochemical; type: cell-based, HUVEC; settings: huvec; also: in other assays of this panel Not Active means under 50% inhibition at 10 µM
D(1A) dopamine receptor = D(1A) dopamine receptor (Homo sapiens, UniProt P21728); test: DRUGMATRIX: Dopamine D1 radioligand binding (ligand: [3H] SCH-23390); type: cell membranes, CHO, Membrane; settings: Not Active = under 50% inhibition at 10 µM
[4] = biological target: T1, Cysteinyl leukotriene receptor 1 (Homo sapiens, UniProt Q9Y271); type: cell membranes, Membrane; settings: cho-k1; also: in other assays of this panel Not Active means under 50% inhibition at 10 µM
T1 sequence (Q9Y271 whole entry): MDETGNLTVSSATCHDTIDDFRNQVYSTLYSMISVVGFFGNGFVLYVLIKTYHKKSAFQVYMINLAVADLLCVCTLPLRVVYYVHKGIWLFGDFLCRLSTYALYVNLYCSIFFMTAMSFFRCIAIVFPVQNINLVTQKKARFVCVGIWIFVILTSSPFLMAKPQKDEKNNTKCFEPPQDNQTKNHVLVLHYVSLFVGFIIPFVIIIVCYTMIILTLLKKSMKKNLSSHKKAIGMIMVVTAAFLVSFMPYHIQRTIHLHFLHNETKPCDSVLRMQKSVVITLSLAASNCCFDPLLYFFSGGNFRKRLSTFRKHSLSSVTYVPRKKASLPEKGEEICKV

Interstitial collagenase = biological target: T2, Interstitial collagenase (Homo sapiens, UniProt P03956); type: tissue-based, Rheumatoid synovial fibroblasts;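 also: MMP-1 enzyme inhibition assay using a peptide substrate; in other assays of this panel Not Active means under 50% inhibition at 10 µM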
T2 sequence (P03956 whole entry): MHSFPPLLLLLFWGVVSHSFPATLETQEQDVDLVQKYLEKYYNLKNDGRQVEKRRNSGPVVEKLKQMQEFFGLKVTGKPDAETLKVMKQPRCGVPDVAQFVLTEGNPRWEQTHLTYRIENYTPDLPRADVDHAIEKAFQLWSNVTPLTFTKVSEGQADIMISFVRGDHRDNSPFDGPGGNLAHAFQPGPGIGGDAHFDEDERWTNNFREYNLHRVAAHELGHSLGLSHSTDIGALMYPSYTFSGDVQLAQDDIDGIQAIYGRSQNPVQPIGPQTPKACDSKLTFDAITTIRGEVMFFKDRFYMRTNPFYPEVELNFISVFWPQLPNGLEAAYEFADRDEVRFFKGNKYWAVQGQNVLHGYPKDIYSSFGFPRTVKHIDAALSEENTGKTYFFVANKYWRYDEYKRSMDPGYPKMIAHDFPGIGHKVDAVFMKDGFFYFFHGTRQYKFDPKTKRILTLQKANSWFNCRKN

Chain of Vascular endothelial growth factor receptor 1 (P17948 whole entry): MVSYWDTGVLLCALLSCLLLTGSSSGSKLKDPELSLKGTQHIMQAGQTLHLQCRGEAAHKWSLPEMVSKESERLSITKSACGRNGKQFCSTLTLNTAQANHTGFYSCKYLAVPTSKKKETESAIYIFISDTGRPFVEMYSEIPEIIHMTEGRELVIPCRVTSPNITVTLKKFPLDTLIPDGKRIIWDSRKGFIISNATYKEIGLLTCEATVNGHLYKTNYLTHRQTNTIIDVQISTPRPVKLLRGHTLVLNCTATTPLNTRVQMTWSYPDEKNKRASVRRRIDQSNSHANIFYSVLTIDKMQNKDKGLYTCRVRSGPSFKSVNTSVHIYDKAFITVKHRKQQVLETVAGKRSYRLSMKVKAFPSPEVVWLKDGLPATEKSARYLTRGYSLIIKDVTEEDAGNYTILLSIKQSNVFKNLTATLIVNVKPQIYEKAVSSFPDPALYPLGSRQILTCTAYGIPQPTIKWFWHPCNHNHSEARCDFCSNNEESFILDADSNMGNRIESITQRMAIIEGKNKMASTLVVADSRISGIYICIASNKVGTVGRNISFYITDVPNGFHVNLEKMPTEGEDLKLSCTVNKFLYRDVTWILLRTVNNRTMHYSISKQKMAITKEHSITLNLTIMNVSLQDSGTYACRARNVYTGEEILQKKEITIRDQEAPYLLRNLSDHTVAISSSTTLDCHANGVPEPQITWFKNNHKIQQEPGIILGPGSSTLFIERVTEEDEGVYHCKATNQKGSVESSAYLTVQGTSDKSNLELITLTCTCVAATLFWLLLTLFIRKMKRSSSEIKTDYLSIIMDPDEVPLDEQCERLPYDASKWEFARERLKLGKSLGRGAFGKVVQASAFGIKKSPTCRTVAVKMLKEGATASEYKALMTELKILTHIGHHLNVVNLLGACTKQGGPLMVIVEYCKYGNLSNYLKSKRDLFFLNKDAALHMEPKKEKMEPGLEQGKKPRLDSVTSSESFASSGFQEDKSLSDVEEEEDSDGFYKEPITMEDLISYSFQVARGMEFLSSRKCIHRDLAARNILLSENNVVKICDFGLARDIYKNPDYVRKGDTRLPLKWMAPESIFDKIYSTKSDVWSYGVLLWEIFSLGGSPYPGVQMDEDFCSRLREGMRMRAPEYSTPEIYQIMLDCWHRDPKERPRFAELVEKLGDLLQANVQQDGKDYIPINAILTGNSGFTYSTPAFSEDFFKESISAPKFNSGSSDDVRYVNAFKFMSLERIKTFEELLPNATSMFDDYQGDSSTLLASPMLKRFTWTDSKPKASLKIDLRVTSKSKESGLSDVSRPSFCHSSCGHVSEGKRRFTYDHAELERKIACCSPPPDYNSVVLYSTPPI
Chain of D(1A) dopamine receptor (P21728 whole entry): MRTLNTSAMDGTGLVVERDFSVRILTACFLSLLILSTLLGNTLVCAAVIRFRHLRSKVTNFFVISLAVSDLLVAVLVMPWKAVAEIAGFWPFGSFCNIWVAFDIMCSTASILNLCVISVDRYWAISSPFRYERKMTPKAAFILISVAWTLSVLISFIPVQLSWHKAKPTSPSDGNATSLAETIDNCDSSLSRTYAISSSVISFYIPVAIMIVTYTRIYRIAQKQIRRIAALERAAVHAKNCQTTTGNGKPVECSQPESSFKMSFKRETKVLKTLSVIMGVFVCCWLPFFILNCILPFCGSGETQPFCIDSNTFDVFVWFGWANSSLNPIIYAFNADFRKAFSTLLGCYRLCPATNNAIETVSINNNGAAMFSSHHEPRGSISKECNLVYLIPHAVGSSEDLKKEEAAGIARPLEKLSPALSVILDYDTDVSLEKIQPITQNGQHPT

Row | Molecule | IC50 [1] | IC50 ([2]; read-out: IC50) | Ki ([2]; read-out: Ki) | IC50 [3] | IC50 (D(1A) dopamine receptor; cho) | IC50 [4] | IC50 (Interstitial collagenase) | IC50 [2] | Ki [2] | IC50 (D(1A) dopamine receptor; read-out: IC50) | Ki (D(1A) dopamine receptor; read-out: Ki) | Ki [1] | Ki [3] | Ki (D(1A) dopamine receptor; cho) | Ki [4] | Ki (Interstitial collagenase)
1 | CCOC(=O)C1=C(C)NC(C)=C(C(=O)OC)C1c1cccc(Cl)c1Cl (stereo not drawn) [FELODIPINE] | Not Active | 0.082 nM | 0.053 nM | Not Active | Not Active | Not Active | Not Active |  |  |  |  |  |  |  |  | 
2 | OCCO [ETHYLENE GLYCOL] | Not Active |  |  | Not Active | Not Active | Not Active | Not Active | Not Active | Not Active |  |  |  |  |  |  | 
3 | CCC[C@@H]1C[C@@H](C(=O)N[C@@H]([C@H]2O[C@H](SC)[C@H](O)[C@@H](O)[C@H]2O)[C@H](C)Cl)N(C)C1 [CLINDAMYCIN] | Not Active |  |  | Not Active | Not Active | Not Active | Not Active | Not Active | Not Active |  |  |  |  |  |  | 
4 | C[C@H]([C@](O)(Cn1cncn1)c1ccc(F)cc1F)S(C)(=O)=O [GENACONAZOLE] | Not Active |  |  | Not Active | Not Active | Not Active | Not Active | Not Active | Not Active |  |  |  |  |  |  | 
5 | Nc1nc(N)nc(NC2CC2)n1 [CYROMAZINE] | Not Active |  |  | Not Active | Not Active | Not Active | Not Active | Not Active | Not Active |  |  |  |  |  |  | 
6 | CC[C@H](C)C(=O)O[C@H]1C[C@H](O)C=C2C=C[C@H](C)[C@H](CC[C@@H](O)C[C@@H](O)CC(=O)O)[C@H]21 [PRAVASTATIN] | Not Active |  |  | Not Active | Not Active | Not Active | Not Active | Not Active | Not Active |  |  |  |  |  |  | 
7 | OCCN1CCN(CCCN2c3ccccc3Sc3ccc(Cl)cc32)CC1 [PERPHENAZINE] | Not Active |  |  | Not Active | Not Active | Not Active | Not Active | Not Active | Not Active |  |  |  |  |  |  | 
8 | CCC(=O)O[C@H]1[C@H](O[C@@H]2[C@@H](C)[C@H](O[C@H]3C[C@@](C)(OC)[C@@H](O)[C@H](C)O3)[C@@H](C)C(=O)O[C@H](CC)[C@@](C)(O)[C@H](O)[C@@H](C)C(=O)[C@H](C)C[C@@]2(C)O)O[C@H](C)C[C@@H]1N(C)C [ERYTHROMYCIN PROPIONATE] | Not Active |  |  | Not Active | Not Active | Not Active | Not Active | Not Active | Not Active |  |  |  |  |  |  | 
9 | C#C[C@]1(O)CC[C@H]2[C@@H]3CCc4cc(O)ccc4[C@H]3CC[C@@]21C [ETHINYL ESTRADIOL] | Not Active |  |  | Not Active | Not Active | Not Active | Not Active | Not Active | Not Active |  |  |  |  |  |  | 
10 | Nc1nc(Cl)nc2c1ncn2[C@H]1C[C@H](O)[C@@H](CO)O1 [CLADRIBINE] | Not Active |  |  | Not Active | Not Active | Not Active | Not Active | Not Active | Not Active |  |  |  |  |  |  | 
11 | CC(C)(Sc1cc(C(C)(C)C)c(O)c(C(C)(C)C)c1)Sc1cc(C(C)(C)C)c(O)c(C(C)(C)C)c1 [PROBUCOL] | Not Active |  |  | Not Active | Not Active | Not Active | Not Active | Not Active | Not Active |  |  |  |  |  |  | 
12 | CN1C[C@H](C(=O)N[C@]2(C)O[C@@]3(O)[C@@H]4CCCN4C(=O)[C@H](Cc4ccccc4)N3C2=O)C[C@@H]2c3cccc4[nH]cc(c34)C[C@H]21 [DIHYDROERGOTAMINE] | Not Active |  |  | Not Active |  | Not Active | Not Active | Not Active | Not Active | 2390 nM | 1200 nM |  |  |  |  | 
13 | CC(CCc1ccc(O)cc1)NCCc1ccc(O)c(O)c1 (stereo not drawn) [DOBUTAMINE] | Not Active |  |  | Not Active | Not Active | Not Active | Not Active | Not Active | Not Active |  |  |  |  |  |  | 
14 | POLYVINYL ALCOHOL | Not Active |  |  | Not Active | Not Active | Not Active | Not Active | Not Active | Not Active |  |  | Not Active | Not Active | Not Active | Not Active | Not Active
15 | CS(=O)(=O)OCCCCOS(C)(=O)=O [BUSULFAN] | Not Active |  |  | Not Active | Not Active | Not Active | Not Active | Not Active | Not Active |  |  |  |  |  |  | 
16 | CC[C@H]1OC(=O)[C@H](C)[C@@H](O[C@H]2C[C@@](C)(OC)[C@@H](O)[C@H](C)O2)[C@H](C)[C@@H](O[C@@H]2O[C@H](C)C[C@H](N(C)C)[C@H]2O)[C@](C)(O)C[C@@H](C)CN(C)[C@H](C)[C@@H](O)[C@]1(C)O [AZITHROMYCIN] | Not Active |  |  | Not Active | Not Active | Not Active | Not Active | Not Active | Not Active |  |  |  |  |  |  | 
17 | CC(=O)OCC(CCn1cnc2cnc(N)nc21)COC(C)=O [FAMCICLOVIR] | Not Active |  |  | Not Active | Not Active | Not Active | Not Active | Not Active | Not Active |  |  |  |  |  |  | 
18 | C/C=C\c1ccc(O)c(OC)c1 [ISOEUGENOL] | Not Active |  |  | Not Active | Not Active | Not Active | Not Active | Not Active | Not Active |  |  |  |  |  |  | 
19 | O=C(c1ccccc1Cl)N1CCC(Cc2ccccc2)CC1 | Not Active |  |  | Not Active | Not Active | Not Active | Not Active | Not Active | Not Active |  |  |  |  |  |  | 
20 | Cc1c(F)c(N2CCNC(C)C2)cc2c1c(=O)c(C(=O)O)cn2C1CC1 (stereo not drawn) [GREPAFLOXACIN] | Not Active |  |  | Not Active | Not Active | Not Active | Not Active | Not Active | Not Active |  |  |  |  |  |  | 
21 | CC(C(=O)O)c1ccc(-c2ccccc2)c(F)c1 (stereo not drawn) [FLURBIPROFEN] | Not Active |  |  | Not Active | Not Active | Not Active | Not Active | Not Active | Not Active |  |  |  |  |  |  | 
22 | COC(=O)c1ccccc1O [METHYL SALICYLATE] | Not Active |  |  | Not Active | Not Active | Not Active | Not Active | Not Active | Not Active |  |  |  |  |  |  | 
23 | O=C(O)c1cccnc1 [NIACIN] | Not Active |  |  | Not Active | Not Active | Not Active | Not Active | Not Active | Not Active |  |  |  |  |  |  | 
24 | CC[C@H](C)C(=O)O[C@H]1C[C@@H](C)C=C2C=C[C@H](C)[C@H](CC[C@@H]3C[C@@H](O)CC(=O)O3)[C@H]21 [LOVASTATIN] | Not Active |  |  | Not Active | Not Active | Not Active | Not Active | Not Active | Not Active |  |  |  |  |  |  | 
25 | COBALT(II) ACETYLACETONATE | Not Active |  |  | Not Active | Not Active | Not Active | Not Active | Not Active | Not Active |  |  | Not Active | Not Active | Not Active | Not Active | Not Active
26 | CN(C(=O)CCCOc1ccc2[nH]c(=O)ccc2c1)C1CCCCC1 [CILOSTAMIDE] | Not Active |  |  | Not Active | Not Active | Not Active | Not Active | Not Active | Not Active |  |  |  |  |  |  | 
